# In paper PMC1257591, “In Vitro Inhibition of Human Hepatic and cDNA-Expressed Sulfotransferase Activity with 3-Hydroxybenzo[a]pyrene by Polychlorobiphenylols” (Environmental Health Perspectives, 2005):
# Like-named read-outs stand apart in the source and are kept apart here.
# What was measured:
# Assay type in all cases: biochemical
# [1] = target: T1, SULT1A1*1 (Homo sapiens, UniProt P50225); test: Inhibition of 3-OH-BaP sulfotransferase activity by OH-PCBs with cDNA-expressed SULT1A1*1; conditions: for IC50: mean of duplicates
# T1 construct: made in house; host or cells: Escherichia coli
# Source text: (§1) The expression of human SULT1A1*1, SULT1A3, SULT1B1, and SULT1E1 in Escherichia coli has been described previously ([Dajani et al. 1998]; [Wang et al. 1998]). We grew E. coli cells containing the respective sulfotransferase genes as described previously ([Falany et al. 1990], [1994]), and prepared 100,000g supernatant fractions for use in inhibition studies and for partial purification of the SULT enzymes. We purchased expressed SULT1A1*2 cytosolic extract from PanVera (Madison, WI) and used it as supplied.
# (§2) We determined SULT activity with 3-OH-BaP as substrate by a fluorimetric assay of BaP-3-SO4 product formation, as described previously ([Wang et al. 2004]). […] Duplicate tubes were prepared for each incubation condition. We examined the kinetics of sulfonation in three liver cytosol fractions by systematically varying the concentration of 3-OH-BaP or PAPS. When the variable substrate was 3-OH-BaP, we used 12 concentrations in the range from 0.035 to 2.00 μM, and the concentration of PAPS was kept constant at 10 μM. When we varied PAPS, we used 7 concentrations from 0.157 to 10.0 μM and kept the concentration of 3-OH-BaP constant at 0.100 μM.
# (§3) For each OH-PCB, we examined the concentration dependence of inhibition with three liver cytosol fractions, as well as with cytosol fractions from the E. coli expressing SULT1A1*1, SULT1A3, SULT1B1, and SULT1E1, and the purchased Sf-9 cytosol fraction (PanVera, Madison, WI) containing SULT1A1*2. For studies with HL cytosol, SULT1A1*1, and SULT1E1, we examined two concentrations of 3-OH-BaP, 0.1 μM and 1.0 μM.
# (§4) We calculated the effects of OH-PCBs on 3-OH-BaP SULT activity as percentage inhibition compared with the controls without an inhibitor. We obtained IC50 values by fitting log OH-PCB concentration and percent control activity to a sigmoidal curve. We examined the relationships between IC50 and physicochemical properties of the OH-PCBs by linear correlation analysis. We calculated the inhibitory constant (Ki) from the kinetic studies with 4′-OH-CB112 by means of Dixon plots and plots of Km/Vmax against inhibitor concentration ([Cornish-Bowden 1995]).
# [2] = target: T2, SULT1A1*2 (Homo sapiens, UniProt P50225, R213H); test: Inhibition of 3-OH-BaP sulfotransferase activity by OH-PCBs with expressed SULT1A1*2
# T2 construct: purchased PanVera (Madison, WI); host or cells: Sf-9
# Source text: as §1, §2, §3, §4
# [3] = target: T3, SULT1E1 (Homo sapiens, UniProt P49888); test: Inhibition of 3-OH-BaP sulfotransferase activity by OH-PCBs with cDNA-expressed SULT1E1; conditions: for IC50: mean of duplicates
# T3 construct: made in house; host or cells: Escherichia coli
# T3 sequence (P49888 1-294): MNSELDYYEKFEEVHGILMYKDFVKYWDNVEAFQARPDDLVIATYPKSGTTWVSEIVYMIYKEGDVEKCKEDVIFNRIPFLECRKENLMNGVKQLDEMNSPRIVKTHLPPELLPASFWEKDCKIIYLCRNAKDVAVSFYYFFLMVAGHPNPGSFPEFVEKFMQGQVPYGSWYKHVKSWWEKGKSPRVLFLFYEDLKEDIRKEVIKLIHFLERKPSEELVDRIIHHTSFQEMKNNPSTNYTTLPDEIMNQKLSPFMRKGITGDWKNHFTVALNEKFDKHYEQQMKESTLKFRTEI
# Source text: as §1, §2, §3, §4
# [4] = target: T4, SULT1B1 (Homo sapiens, UniProt O43704); test: Inhibition of 3-OH-BaP sulfotransferase activity by OH-PCBs with cDNA-expressed SULT1B1; conditions: for IC50: mean of duplicates
# T4 construct: made in house; host or cells: Escherichia coli
# Source text: as §1, §2, §3, §4
# [5] = target: T5, SULT1A3 (Homo sapiens, UniProt P0DMM9); test: Inhibition of 3-OH-BaP sulfotransferase activity by 50 μM OH-PCBs with cDNA-expressed SULT1A3; conditions: for inhibition at 50 µM: read-out: inhibition of 3-OH-BaP sulfonation by SULT1A3
# T5 construct: made in house; host or cells: Escherichia coli
# Source text: as §1, §2, §3, §4
# [6] = target: HL cytosol 3-OH-BaP sulfotransferase (Homo sapiens, UniProt P50225); test: Kinetics of 3-OH-BaP sulfotransferase inhibition by 4′-OH-CB112 in HL cytosol
# Experimental: To study the type of inhibition produced by OH-PCBs, we used 4′-OH-CB112 (B5) as a model inhibitor. We prepared four sets of assay tubes containing HL cytosol and varying amounts of 3-OH-BaP from 35 to 150 nM: one set (control) contained no 4′-OH-CB112; the other sets contained 0.25 μM, 0.5 μM, or 1.0 μM 4′-OH-CB112.
# as §4
# [7] = target: HL cytosol sulfotransferase (Homo sapiens, UniProt P50225); test: Kinetics of 3-OH-BaP sulfonation by human liver cytosol (fluorimetric assay of BaP-3-SO4 formation); conditions: HL cytosol, 0.1 μM 3-OH-BaP, varying PAPS, mean ± SD n = 3
# Experimental: F.P. Guengerich (Vanderbilt University) kindly donated the samples of human liver, which were procured from organ donors ([Guengerich 1995]). We prepared liver cytosolic fractions from four livers by standard methods and stored aliquots at −80°C until use ([Wang et al. 2004]). We used three or four of these cytosol fractions in each experiment.
# as §2
# (§5) We calculated the enzyme kinetic parameters from studies with variable concentrations of 3-OH-BaP using nonlinear regression analysis and GraphPad 4.0 software (GraphPad Software, San Diego, CA). We selected the built-in Michaelis-Menten equation for most analyses. Where we found evidence of 3-OH-BaP substrate inhibition, we fit the data into an equation derived from a two-substrate model ([Zhang et al. 1998]): […]
# (§6) This equation denoted the constant for binding of the first substrate (S) molecule as Km and the second substrate molecule as Ki. V1 is the maximum rate for the noninhibitory substrate concentration range, and V2 is the minimum rate in the inhibitory substrate concentration range
# [8] = target: T2, SULT1A1*2; test: Kinetics of 3-OH-BaP sulfonation by expressed SULT1A1*2; conditions: expressed SULT1A1*2, 0.1 μM 3-OH-BaP, varying PAPS
# Source text: as §1, §2
# We determined the kinetic parameters for 3-OH-BaP sulfonation by partially purified preparations of the cDNA-expressed SULT isozymes under incubation conditions similar to those used for liver cytosol. For SULT1A1*1 and -1A1*2, we used seven substrate concentrations in the range from 5 to 100 nM; for SULT1E1 we used […] 3-OH-BaP concentrations from 15.6 to 1,000 nM; and for SULT1A3 and 1B1 we used seven concentrations of 3-OH-BaP from 0.25 to 5.0 μM.
# as §5, §6
# [9] = IC50 SULT1A1*1, 0.1 μM 3-OH-BaP
# [10] = IC50 SULT1A1*1, 1.0 μM 3-OH-BaP
# [11] = 0.1 μM 3-OH-BaP, read-out: IC50 SULT1A1*1
# [12] = 1.0 μM 3-OH-BaP, read-out: IC50 SULT1A1*1
# [13] = 0.1 μM 3-OH-BaP, mean of duplicates, read-out: IC50 SULT1A1*2
# [14] = 0.1 μM 3-OH-BaP, read-out: IC50 SULT1E1
# [15] = 1.0 μM 3-OH-BaP, read-out: IC50 SULT1E1
# [16] = 1.0 μM 3-OH-BaP, read-out: IC50 SULT1B1
# T2 sequence (P50225 whole entry R213H): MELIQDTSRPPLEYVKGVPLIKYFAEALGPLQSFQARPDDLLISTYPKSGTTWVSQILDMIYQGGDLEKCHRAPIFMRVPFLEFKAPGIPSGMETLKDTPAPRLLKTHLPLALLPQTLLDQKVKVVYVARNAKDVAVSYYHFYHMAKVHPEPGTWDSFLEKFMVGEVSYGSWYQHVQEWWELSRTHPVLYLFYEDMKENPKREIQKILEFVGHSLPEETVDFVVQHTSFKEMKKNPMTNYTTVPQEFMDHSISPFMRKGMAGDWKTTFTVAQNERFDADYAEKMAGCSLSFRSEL
# T4 sequence (O43704 whole entry): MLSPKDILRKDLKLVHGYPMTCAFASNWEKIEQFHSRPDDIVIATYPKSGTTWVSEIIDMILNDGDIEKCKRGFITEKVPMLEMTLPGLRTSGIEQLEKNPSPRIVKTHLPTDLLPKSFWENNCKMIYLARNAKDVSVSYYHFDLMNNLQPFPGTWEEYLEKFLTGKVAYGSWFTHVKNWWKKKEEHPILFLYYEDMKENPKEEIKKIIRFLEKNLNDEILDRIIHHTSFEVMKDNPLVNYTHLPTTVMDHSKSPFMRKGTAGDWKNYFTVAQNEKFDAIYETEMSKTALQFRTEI
# T5 sequence (P0DMM9 whole entry): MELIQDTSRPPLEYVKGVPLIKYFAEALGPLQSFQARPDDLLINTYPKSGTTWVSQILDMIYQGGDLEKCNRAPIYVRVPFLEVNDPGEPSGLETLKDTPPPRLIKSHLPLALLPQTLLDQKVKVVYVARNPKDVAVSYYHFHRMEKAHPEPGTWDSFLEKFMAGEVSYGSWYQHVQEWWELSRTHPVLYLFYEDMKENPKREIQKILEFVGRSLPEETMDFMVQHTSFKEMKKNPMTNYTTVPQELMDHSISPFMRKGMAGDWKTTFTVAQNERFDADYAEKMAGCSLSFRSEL
# HL cytosol 3-OH-BaP sulfotransferase, sequence (P50225 whole entry): as the sequence (P50225 whole entry R213H) above, with H213R counted along it
# HL cytosol sulfotransferase, sequence (P50225 whole entry): as the sequence (P50225 whole entry R213H) above, with H213R counted along it
Compound,"IC50 [1, 11] [µM]","IC50 [1, 12] [µM]","IC50 [2, 13] [µM]","IC50 [3, 14] [µM]","IC50 [3, 15] [µM]","IC50 [4, 16] [µM]","inhibition at 50 µM ([5]; 50 μM OH-PCB, 1.0 μM 3-OH-BaP) [%]","inhibition of 3-OH-BaP sulfonation by SULT1A3 ([5]; 50 μM OH-PCB, 1.0 μM 3-OH-BaP)",further results
"Oc1c(Cl)cc(-c2ccc(Cl)c(Cl)c2)cc1Cl [Compound C1, 4′-OH-CB79]",–,–,–,–,–,–,–,–,"IC50 [1, 9]: 6.65 µM; IC50 [1, 10]: 59.8 µM; IC50 [2]: 4.57 µM; IC50 ([3]; IC50 SULT1E1, 0.1 μM 3-OH-BaP): 0.5 µM; IC50 ([3]; IC50 SULT1E1, 1.0 μM 3-OH-BaP): 1.32 µM; IC50 ([4]; IC50 SULT1B1, 1.0 μM 3-OH-BaP): 39.9 µM; inhibition at 50 µM [5]: 2 to 20%"
"Oc1c(Cl)cc(-c2cc(Cl)c(Cl)c(Cl)c2Cl)cc1Cl [Compound C4, 4′-OH-CB159]",2.16,34.1,1.67,1.3,3.55,> 100,2 to 20,–,–
"Oc1ccc(-c2c(Cl)c(Cl)cc(Cl)c2Cl)cc1Cl [Compound B5, 4′-OH-CB112]",1.17,42.5,1.48,5.35,23.2,86.5,–,did not inhibit,"type of inhibition ([6]; 3-OH-BaP 35 to 150 nM): noncompetitive; Vmax (3-OH-BaP sulfotransferase activity) ([6]; in presence of 0.25 μM B5, two livers): 56.3 ± 6.0 B pmol/min/mg protein; Vmax (3-OH-BaP sulfotransferase activity) ([6]; in presence of 0.5 μM B5, n = 3): 41.2 ± 3.3 C pmol/min/mg protein; Vmax (3-OH-BaP sulfotransferase activity) ([6]; in presence of 1.0 μM B5, n = 3): 33.3 ± 3.2 D pmol/min/mg protein"
"Oc1c(Cl)cc(-c2c(Cl)cc(Cl)cc2Cl)cc1Cl [Compound C3, 4′-OH-CB121]",–,–,–,–,–,–,–,did not inhibit,"IC50 [1, 9]: 8.15 µM; IC50 [1, 10]: 99.5 µM; IC50 [2]: 6.52 µM; IC50 ([3]; IC50 SULT1E1, 0.1 μM 3-OH-BaP): 7.98 µM; IC50 ([3]; IC50 SULT1E1, 1.0 μM 3-OH-BaP): 16.7 µM; IC50 ([4]; IC50 SULT1B1, 1.0 μM 3-OH-BaP): > 100 µM"
"Oc1ccc(-c2cc(Cl)cc(Cl)c2)cc1Cl [Compound B2, 4′-OH-CB36]",1.31,28,0.94,0.45,1.89,37,2 to 20,–,–
"Oc1c(Cl)cc(-c2cccc(Cl)c2)cc1Cl [Compound C2, 4-OH-CB36]",3.09,> 100,3.05,0.41,1.65,47.5,43,–,–
"Oc1ccc(-c2cc(Cl)c(Cl)c(Cl)c2Cl)cc1Cl [Compound B4, 4′-OH-CB106]",–,–,–,–,–,–,–,did not inhibit,"IC50 [1, 9]: 1.07 µM; IC50 [1, 10]: 10.3 µM; IC50 [2]: 1.06 µM; IC50 ([3]; IC50 SULT1E1, 0.1 μM 3-OH-BaP): 1.18 µM; IC50 ([3]; IC50 SULT1E1, 1.0 μM 3-OH-BaP): 6.97 µM; IC50 ([4]; IC50 SULT1B1, 1.0 μM 3-OH-BaP): 17.4 µM"
"Oc1ccc(-c2c(Cl)cc(Cl)cc2Cl)cc1Cl [Compound B3, 4′-OH-CB69]",1.16,67.5,1.31,4.87,30.8,> 100,–,did not inhibit,–
"Oc1ccc(-c2ccc(Cl)c(Cl)c2)cc1Cl [Compound B1, 4′-OH-CB35]",0.77,25.2,0.55,0.24,1.02,16.8,2 to 20,–,–
"Oc1ccc(Cl)cc1-c1ccc(Cl)c(Cl)c1 [Compound A1, 6′-OH-CB35]",> 100,> 100,> 100,~100,> 100,4.72,–,did not inhibit,"inhibitory potency in words, SULT1A1*1 ([1]; both substrate concentrations (0.1 and 1.0 μM 3-OH-BaP)): poor inhibitor; inhibitory potency in words, SULT1E1 ([3]; either substrate concentration (0.1 and 1.0 μM 3-OH-BaP)): poor inhibitor; inhibitory potency in words, SULT1B1 ([4]; 1.0 μM 3-OH-BaP): fairly potent inhibitor"
"Nc1ncnc2c1ncn2[C@@H]1O[C@H](COP(=O)(O)OS(=O)(=O)O)[C@@H](OP(=O)(O)O)[C@H]1O [PAPS, 3′-phosphoadenosine 5′-phosphosulfate]",–,–,–,–,–,–,–,–,Vmax (varying PAPS) [7]: 48 ± 2 pmol/min/mg protein; Km ([7]; read-out: apparent Km for PAPS): 0.56 ± 0.09 µM; Vmax (varying PAPS) [8]: 684 pmol/min/mg protein; Km ([8]; read-out: apparent Km for PAPS): 0.32 µM
"Oc1c(Cl)cc(-c2cc(Cl)ccc2Cl)cc1Cl [Compound C6, 4′-OH-CB72]",2.21,33.8,2.03,0.57,2.28,> 100,–,did not inhibit,–
"Oc1c(Cl)cc(-c2c(Cl)c(Cl)cc(Cl)c2Cl)cc1Cl [Compound C5, 4′-OH-CB165]",2.58,54.8,2.59,6.96,21.4,> 100,–,did not inhibit,–
